Data reported in article PMC12185792, “Guanylate cyclase activity in moss: revisiting the role of ERECTA-like receptors” (Physiology and Molecular Biology of Plants, 2025).

How the values were obtained:
[1] = target: T1, PpERL1 (Physcomitrium patens ERECTA-like receptor 1) (Physcomitrium patens, UniProt A0A2K1L2N0, K890N); test: Kinase-Glo Plus luminescent kinase assay, histone type III; type: biochemical; details: 10 μM ATP, 5 mM MgCl2, 1 mM DTT, Tris-HCl pH 7.5, 30 °C; inhibition of kinase domain, possibly via GC domain
T1 construct: gene LOC112274326; intracellular fragment 658-1018 (kinase domain with embedded GC motif 877-893) of 1018 residues; N-terminal GST tag kept (pGEX-6P-2), about 66 kDa; E. coli BL21(DE3)pLysS
T1 sequence (A0A2K1L2N0 entry or part of it K890N): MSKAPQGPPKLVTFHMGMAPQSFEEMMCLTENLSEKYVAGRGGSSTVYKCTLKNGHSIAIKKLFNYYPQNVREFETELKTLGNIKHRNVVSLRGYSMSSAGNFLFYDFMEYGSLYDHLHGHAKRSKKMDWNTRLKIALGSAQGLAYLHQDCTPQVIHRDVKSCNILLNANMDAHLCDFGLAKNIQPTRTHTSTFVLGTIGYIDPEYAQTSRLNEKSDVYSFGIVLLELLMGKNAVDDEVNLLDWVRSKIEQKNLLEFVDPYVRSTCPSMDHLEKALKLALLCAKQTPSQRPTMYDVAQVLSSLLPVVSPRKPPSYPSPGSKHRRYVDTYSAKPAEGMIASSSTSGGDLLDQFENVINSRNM

[2] = target: T2, PpERL1 (Physcomitrium patens ERECTA-like receptor 1) (Physcomitrium patens, UniProt A0A2K1L2N0); test: as above; type: biochemical; details: 10 μM ATP, 5 mM MgCl2, 1 mM DTT, Tris-HCl pH 7.5, 30 °C; inhibition of kinase domain, possibly via GC domain
T2 construct: gene LOC112274326; intracellular fragment 658-1018 (kinase domain with embedded GC motif 877-893) of 1018 residues; N-terminal GST tag kept (pGEX-6P-2), about 66 kDa; E. coli BL21(DE3)pLysS
T2 sequence (A0A2K1L2N0 658-1018): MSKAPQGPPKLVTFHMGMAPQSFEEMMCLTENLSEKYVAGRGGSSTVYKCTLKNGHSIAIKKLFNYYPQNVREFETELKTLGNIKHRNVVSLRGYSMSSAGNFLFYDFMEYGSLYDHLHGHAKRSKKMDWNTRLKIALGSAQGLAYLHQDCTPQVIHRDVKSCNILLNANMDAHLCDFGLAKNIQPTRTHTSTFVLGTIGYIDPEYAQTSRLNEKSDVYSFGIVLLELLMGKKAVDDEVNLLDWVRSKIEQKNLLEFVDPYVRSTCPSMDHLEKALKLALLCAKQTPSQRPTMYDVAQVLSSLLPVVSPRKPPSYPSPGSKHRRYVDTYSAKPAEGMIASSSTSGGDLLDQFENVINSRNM

[3] = substrate: Nc1nc2c(ncn2[C@@H]2O[C@H](COP(=O)(O)OP(=O)(O)OP(=O)(O)O)[C@@H](O)[C@H]2O)c(=O)[nH]1; test: guanylate cyclase assay, cGMP by LC-MS/MS; type: biochemical, Physcomitrium patens; details: GTP 0.1-3 mM, 5 mM MgCl2, 2.5 mM MnCl2, 1 mM DTT, Tris-HCl pH 7.5, 30 °C, no CaCl2

Q: Which results are given for Nc1nc2c(ncn2[C@@H]2O[C@H](COP(=O)(O)OP(=O)(O)OP(=O)(O)O)[C@@H](O)[C@H]2O)c(=O)[nH]1 [GTP]?
A: relative kinase activity at 1 mM GTP [1]: the presence of GTP resulted in a slight decrease in kinase activity; relative kinase activity at 1 mM GTP [2]: adding GTP to the reaction mixture led to a significant decrease in kinase activity

B1: PpERL1 (Physcomitrium patens ERECTA-like receptor 1) (Physcomitrium patens) (protein)
chain: T2 sequence (A0A2K1L2N0 658-1018)
notes: intracellular fragment 658-1018 (kinase domain with embedded GC motif 877-893) of 1018 residues; N-terminal GST tag kept (pGEX-6P-2), about 66 kDa; E. coli BL21(DE3)pLysS
Q: B1 was tested. Which Km [3] did it give?
A: Its Km is 609.8 µM.
